From US12274775B2, “Fatty acid esters as anti-Malassezia agents” (SYMRISE AG, priority 2019, dated 2025)
Values after ≈ are worked out from the molar mass of the structure shown. Read-outs that look alike come from different tables or passages of the source.

Key:
Experiment in all cases: Agar dilution test on mDixon agar, minimal inhibitory concentration (MIC)
Format in all cases: cell-based
[1] = system: M. globosa; details: for MIC: Malassezia globosa
Experimental: (§1) The fatty acid esters and their mixtures were tested for growth inhibition against Malassezia. The following reference strains were included:
(§2) Tests were performed on solid media using agar dilution tests. Stock solutions of test substances were prepared in mDixon-Agar (cf. Table 2). Lower test concentrations were obtained by diluting stock solutions with fresh agar.
(§3) Preparation of liquid agar was carried out in temperated water bath. Required amounts of test substances were weighed in 130 ml of Dixon Agar and mixed with fresh Dixon-Agar to reach desired concentrations of test substances. Agar solutions with test substances were then poured into 24 well-plates. The pH value in all assays was maintained at 5.5. Preparation of test substances was done on weight per volume base. All results are expressed in parts per million (1 ppm=0.0001%).
(§4) Briefly, Malassezia strains were cultivated on selective agar for pathogenic fungi (Merck) and overlaid with a thin layer of cold-sterilized olive oil. […] Incubation was carried out at 32° C. over a maximal duration of 14 days with regular inspection and documentation of growth status. Minimal inhibitory concentrations (MICs) were determined as the lowest concentrations of test compound without visible growth. Each experiment was repeated to confirm results.

[2] = system: M. sympodialis; details: 336 h
Experimental: as §1, §2, §3, §4

[3] = system: M. pachydermatis; details: for MIC: Malassezia pachydermatis
Experimental: as §1, §2, §3, §4

[4] = system: M. furfur; details: for MIC: Malassezia furfur
Experimental: as §1, §2, §3, §4

[5] = system: M. restricta; details: for MIC: 336 h
Experimental: as §1, §2, §3, §4

[6] = 336 h, M. globosa PM1, agar dilution, pH 5.5, 32° C., up to 14 days, read-out: Minimal inhibitory concentration (MIC)
[7] = CBS7705, 336 h, M. globosa CBS 7705, agar dilution, pH 5.5, 32° C., up to 14 days, read-out: Minimal inhibitory concentration (MIC)
[8] = CBS7966, 336 h, M. globosa CBS 7966, agar dilution, pH 5.5, 32° C., up to 14 days, read-out: Minimal inhibitory concentration (MIC)
[9] = pH 5.5, M. sympodialis ATCC 42132, pH 5.5, 32° C., up to 14 days, read-out: Minimal inhibitory concentration (MIC)
[10] = pH 5.5, M. sympodialis CBS 7222, pH 5.5, 32° C., up to 14 days, read-out: Minimal inhibitory concentration (MIC)
[11] = pH 5.5, M. sympodialis CBS 7979, pH 5.5, 32° C., up to 14 days, read-out: Minimal inhibitory concentration (MIC)
[12] = pH 5.5, M. sympodialis DSM 6171, pH 5.5, 32° C., up to 14 days, read-out: Minimal inhibitory concentration (MIC)
[13] = 336 h, M. pachydermatis 1892, agar dilution, pH 5.5, 32° C., up to 14 days, read-out: Minimal inhibitory concentration (MIC)
[14] = CBS1879, 336 h, M. pachydermatis CBS 1879, agar dilution, pH 5.5, 32° C., up to 14 days, read-out: Minimal inhibitory concentration (MIC)
[15] = CBS1878, 336 h, M. furfur CBS 1878, agar dilution, pH 5.5, 32° C., up to 14 days, read-out: Minimal inhibitory concentration (MIC)
[16] = CBS7019, 336 h, M. furfur CBS 7019, agar dilution, pH 5.5, 32° C., up to 14 days, read-out: Minimal inhibitory concentration (MIC)
[17] = M. restricta CBS 7877, agar dilution, pH 5.5, 32° C., up to 14 days, read-out: Minimal inhibitory concentration (MIC)
[18] = M. globosa CBS 7966, agar dilution, pH 5.5, 32° C., up to 14 days
[19] = M. globosa PM1, agar dilution, pH 5.5, 32° C., up to 14 days
[20] = M. furfur CBS 1878, agar dilution, pH 5.5, 32° C., up to 14 days
[21] = M. furfur CBS 7019, agar dilution, pH 5.5, 32° C., up to 14 days
[22] = 336 h, pH 5.5, read-out: Minimal inhibitory concentration (MIC)

Row | Compound | MIC [1, 6] | MIC [1, 7] | MIC [1, 8] | MIC [2, 9] | MIC [2, 10] | MIC [2, 11] | MIC [2, 12] | MIC [3, 13] | MIC [3, 14] | MIC [4, 15] | MIC [4, 16] | MIC [5, 17] | also measured
1 | C=CCCCCCCCCC(=O)OCC(O)CO (stereo not drawn) [Glyceryl monoundecylenoate] | 2000 µg/mL (≈ 7.74 mM) | 1000 µg/mL (≈ 3.87 mM) | 2000 µg/mL (≈ 7.74 mM) | 500 µg/mL (≈ 1.94 mM) | 500 µg/mL (≈ 1.94 mM) | 500 µg/mL (≈ 1.94 mM) | 200 µg/mL (≈ 0.774 mM) | 4000 µg/mL (≈ 15.5 mM) | 8000 µg/mL (≈ 31 mM) | 8000 µg/mL (≈ 31 mM) | 8000 µg/mL (≈ 31 mM) | 1000 µg/mL (≈ 3.87 mM) | 
2 | C=CCCCCCCCCC(=O)OCC(COC(=O)CCCCCCCCC=C)OC(=O)CCCCCCCCC=C [Glyceryl triundecylenoate] |  |  |  |  |  |  |  |  |  |  |  |  | Minimal inhibitory concentration (MIC) ([1]; M. globosa CBS 7705, agar dilution, pH 5.5, 32° C., up to 14 days): 8000 ppm; Minimal inhibitory concentration (MIC) [1, 18]: >20000 ppm; Minimal inhibitory concentration (MIC) [1, 19]: 8000 ppm; Minimal inhibitory concentration (MIC) ([3]; M. pachydermatis 1892, agar dilution, pH 5.5, 32° C., up to 14 days): 4000 ppm; Minimal inhibitory concentration (MIC) ([3]; M. pachydermatis CBS 1879, agar dilution, pH 5.5, 32° C., up to 14 days): 4000 ppm; Minimal inhibitory concentration (MIC) [4, 20]: 10000 ppm; Minimal inhibitory concentration (MIC) [4, 21]: >20000 ppm; Minimal inhibitory concentration (MIC) ([5]; M. restricta CBS 7877, agar dilution, pH 5.5, 32° C., up to 14 days): 4000 ppm
3 | C=CCCCCCCCCC(=O)OCC [Ethyl undecylenoate] | 8000 µg/mL (≈ 37.7 mM) | 4000 µg/mL (≈ 18.8 mM) | 10000 µg/mL (≈ 47.1 mM) | 200 µg/mL (≈ 0.942 mM) | 200 µg/mL (≈ 0.942 mM) | 200 µg/mL (≈ 0.942 mM) | 200 µg/mL (≈ 0.942 mM) | 500 µg/mL (≈ 2.35 mM) | 2000 µg/mL (≈ 9.42 mM) | 20000 µg/mL (≈ 94.2 mM) | > 20000 µg/mL | 1000 µg/mL (≈ 4.71 mM) | 
4 | CCCC(O)CO (stereo not drawn) [1,2-Pentandiol] | 10000 µg/mL (≈ 96 mM) | 20000 µg/mL (≈ 192 mM) | 10000 µg/mL (≈ 96 mM) | 20000 µg/mL (≈ 192 mM) | 20000 µg/mL (≈ 192 mM) | 20000 µg/mL (≈ 192 mM) | 20000 µg/mL (≈ 192 mM) |  |  |  |  | 10000 µg/mL (≈ 96 mM) | 
5 | C=CCCCCCCCCC(=O)OCC(CO)OC(=O)CCCCCCCCC=C (stereo not drawn) [3-Hydroxypropyl diundecylenoate] |  |  |  |  |  |  |  |  |  |  |  |  | Minimal inhibitory concentration (MIC) [1, 18]: 10000 ppm; Minimal inhibitory concentration (MIC) [1, 19]: 10000 ppm; Minimal inhibitory concentration (MIC) [4, 20]: >20000 ppm; Minimal inhibitory concentration (MIC) [4, 21]: >20000 ppm
6 | CCCCC(O)CO (stereo not drawn) [1,2-Hexandiol] | 5000 µg/mL (≈ 42.3 mM) | 10000 µg/mL (≈ 84.6 mM) | 5000 µg/mL (≈ 42.3 mM) | 10000 µg/mL (≈ 84.6 mM) | 10000 µg/mL (≈ 84.6 mM) | 10000 µg/mL (≈ 84.6 mM) | 10000 µg/mL (≈ 84.6 mM) |  |  |  |  | 5000 µg/mL (≈ 42.3 mM) | 
7 | CCCCCCCCC(O)CO (stereo not drawn) [1,2-Decandiol] | 8000 µg/mL (≈ 45.9 mM) | 8000 µg/mL (≈ 45.9 mM) | 8000 µg/mL (≈ 45.9 mM) | 1000 µg/mL (≈ 5.74 mM) | 1000 µg/mL (≈ 5.74 mM) | 2000 µg/mL (≈ 11.5 mM) | 4000 µg/mL (≈ 23 mM) |  |  |  |  | 1000 µg/mL (≈ 5.74 mM) | 
8 | CCCCCCCC(=O)OCC(O)CO (stereo not drawn) [Glyceryl monocaprylate] | 500 to 1000 µg/mL (≈ 2.29 to 4.58 mM) | 1000 µg/mL (≈ 4.58 mM) | 1000 µg/mL (≈ 4.58 mM) | 1000 µg/mL (≈ 4.58 mM) | 1000 µg/mL (≈ 4.58 mM) | 1000 µg/mL (≈ 4.58 mM) | 2000 µg/mL (≈ 9.16 mM) | 500 µg/mL (≈ 2.29 mM) | 330 µg/mL (≈ 1.51 mM) | 4000 µg/mL (≈ 18.3 mM) | 4000 µg/mL (≈ 18.3 mM) | 330 µg/mL (≈ 1.51 mM) | 
9 | C=CCCCCCCCCC(=O)O [Undecylenic acid, 10-undecylenic acid] |  |  |  |  |  |  |  |  |  |  |  |  | MIC [1, 22]: 677 µg/mL (≈ 3.67 mM); MIC ([1]; CBS7705, 336 h, pH 5.5, read-out: Minimal inhibitory concentration (MIC)): 330 µg/mL (≈ 1.79 mM); MIC ([1]; CBS7966, 336 h, pH 5.5, read-out: Minimal inhibitory concentration (MIC)): 2000 µg/mL (≈ 10.9 mM); MIC ([2]; pH 5.5, read-out: Minimal inhibitory concentration (MIC), M. sympodialis ATCC 42132, pH 5.5, 32° C., up to 14 days): 100 µg/mL (≈ 0.543 mM); MIC ([2]; pH 5.5, read-out: Minimal inhibitory concentration (MIC), M. sympodialis CBS 7222, pH 5.5, 32° C., up to 14 days): 100 µg/mL (≈ 0.543 mM); MIC ([2]; pH 5.5, read-out: Minimal inhibitory concentration (MIC), M. sympodialis CBS 7979, pH 5.5, 32° C., up to 14 days): 200 µg/mL (≈ 1.09 mM); MIC ([2]; pH 5.5, read-out: Minimal inhibitory concentration (MIC), M. sympodialis DSM 6171, pH 5.5, 32° C., up to 14 days): 100 µg/mL (≈ 0.543 mM); MIC [3, 22]: 500 µg/mL (≈ 2.71 mM); MIC ([3]; CBS1879, 336 h, pH 5.5, read-out: Minimal inhibitory concentration (MIC)): 1000 µg/mL (≈ 5.43 mM); MIC ([4]; CBS1878, 336 h, pH 5.5, read-out: Minimal inhibitory concentration (MIC)): 2000 µg/mL (≈ 10.9 mM); MIC ([4]; CBS7019, 336 h, pH 5.5, read-out: Minimal inhibitory concentration (MIC)): > 2000 µg/mL; MIC ([5]; pH 5.5, read-out: Minimal inhibitory concentration (MIC)): 500 µg/mL (≈ 2.71 mM)
